{"source": "patent US9867377B2", "about": "“Composition comprising a biological control agent and an insecticide” (Bayer CropScience AG, priority 2012, dated 2018)", "type_in_all_cases": "in vivo", "key": {"[1]": {"tested_on": "two spotted spidermite (Tetranychus urticae)", "experiment": "Tetranychus urticae - spray test, OP-resistant", "details": "mortality, infested French beans sprayed", "protocol": "(§1) Formula for the efficacy of the combination of two compounds • The expected efficacy of a given combination of two compounds is calculated as follows (see Colby, S. R., “Calculating Synergistic and antagonistic Responses of Herbicide Combinations”, Weeds 15, pp. 20-22, 1967): • If • X is the efficacy expressed in % mortality of the untreated control for test compound A at a concentration of m ppm respectively m g/ha, • Y is the efficacy expressed in % mortality of the untreated control for test compound B at a concentration of n ppm respectively n g/ha, • E is the efficacy expressed in % mortality of the untreated control using the mixture of A and B at m and n ppm respectively m and n g/ha, • then is\n(§2) [formula] • If the observed insecticidal efficacy of the combination is higher than the one calculated as, “E”, then the combination of the two compounds is more than additive, i.e., there is a synergistic effect.\nTetranychus urticae—Spray Test, OP-Resistant\n(§3) Solvent: 78.0 parts by weight acetone • 1.5 parts by weight dimethylformamide\n(§4) Emulsifier: alkylaryl polyglycol ether\n(§5) To produce a suitable preparation of active compound, 1 part by weight of active compound is mixed with the stated amount of solvents and is diluted with water, containing an emulsifier concentration of 1000 ppm, to the desired concentration. To produce a suitable preparation of a spore suspension the spores are diluted with emulsifier containing water to the desired concentration. Further test concentrations are prepared by dilution with emulsifier containing water.\nFrench beans (Phaseolus vulgaris) which are heavily infested with all stages of the two spotted spidermite (Tetranychus urticae), are sprayed with a preparation of the active ingredient of the desired concentration.\nAfter the specified period of time, mortality in % is determined. 100% means all spider mites have been killed and 0% means none of the spider mites have been killed. The mortality values determined thus are recalculated using the Colby-formula (see sheet 1)."}, "[2]": {"tested_on": "mustard beetle larvae (Phaedon cochleariae)", "experiment": "Phaedon cochleariae - spray test", "details": "mortality, Chinese cabbage leaf disks sprayed", "protocol": "as §1, §2\nPhaedon cochleariae—Spray Test\nSolvent: 78.0 parts by weight of acetone • • 1.5 parts by weight of dimethylformamide\nEmulsifier: alkylaryl polyglycol ether […]\nAfter the specified period of time, mortality in % is determined. […] The mortality values determined thus are recalculated using the Colby-formula (see sheet 1)."}, "[3]": {"tested_on": "green peach aphid (Myzus persicae)", "experiment": "Myzus persicae - spray test", "details": "mortality, infested Chinese cabbage leaf disks sprayed; for Efficacy in % after 6 d: 0.4 g ai/ha", "protocol": "as §1, §2\nMyzus persicae—Spray Test\nas §3, §4, §5\nChinese cabbage (Brassica pekinensis) leaf-disks infected with all instars of the green peach aphid (Myzus persicae) are sprayed with a preparation of the active ingredient of the desired concentration.\nAfter the specified period of time, mortality in % is determined. 100% means all aphids have been killed; 0% means none of the aphids have been killed. The mortality values determined thus are recalculated using the Colby-formula (see sheet 1)."}}, "data": [{"smiles": "Cc1cc(C)c(C2=C(OC(=O)CC(C)(C)C)C3(CCCC3)OC2=O)c(C)c1", "note": "[Spiromesifen]", "values": [{"measurement": "Efficacy in % after 6 d", "setting": "[1]; 0.5 g ai/ha", "value": 0, "unit": "%"}]}, {"smiles": "CNC(=O)c1cc(C#N)cc(C)c1NC(=O)c1cc(Cn2nnc(C(F)(F)F)n2)nn1-c1ncccc1Cl", "note": "[BCS-CL73507]", "values": [{"measurement": "Efficacy in % after 6 d", "setting": "[2]; 0.08 g ai/ha", "value": 0, "unit": "%"}, {"measurement": "Efficacy in % after 6 d", "setting": "[3]", "value": 0, "unit": "%"}]}, {"smiles": "CCOC(=O)OC1=C(c2cc(C)ccc2C)C(=O)N[C@]12CC[C@@H](OC)CC2", "note": "[Spirotetramat]", "values": [{"measurement": "Efficacy in % after 6 d", "setting": "[3]", "value": 0, "unit": "%"}]}, {"smiles": "O=C1C=C(N(Cc2ccc(Cl)nc2)CC(F)F)CO1", "note": "[Flupyradifurone]", "values": [{"measurement": "Efficacy in % after 1 d", "setting": "[3]; 20 g ai/ha", "value": 0, "unit": "%"}, {"measurement": "Efficacy in % after 6 d", "setting": "[1]; 250 g ai/ha", "value": 0, "unit": "%"}]}, {"smiles": "O=C(NCCc1ncc(C(F)(F)F)cc1Cl)c1ccccc1C(F)(F)F", "note": "[Fluopyram]", "values": [{"measurement": "Efficacy in % after 6 d", "setting": "[2]; 100 g ai/ha", "value": 0, "unit": "%"}, {"measurement": "Efficacy in % after 1 d", "setting": "[3]; 1000 g ai/ha", "value": 0, "unit": "%"}]}, {"smiles": "Cc1cc(F)c(-n2nc(C(F)(F)F)nc2N)cc1[S+]([O-])CC(F)(F)F", "note": "(stereo not shown) [AMSI 378, 1-{2-fluoro-4-methyl-5-[(2,2,2-trifluorethyl)sulfinyl]phenyl}-3-(trifluoromethyl)-1H-1,2,4-triazol-5-amine]", "values": [{"measurement": "Efficacy in % after 2 d", "setting": "[1]; 4 g ai/ha", "value": 30, "unit": "%"}, {"measurement": "Efficacy in % after 6 d", "setting": "[1]; 4 g ai/ha", "value": 0, "unit": "%"}]}]}
